Measurements published in patent publication US20110021475A1, “Compositions And Methods for Treatment Of Fibrosis” (priority 2003, published 2011).

Key:
[1] = tested on: bile duct ligated (BDL) rats; assay: Bile duct ligated (BDL) rats: serum chemistry, liver histology and liver fibrosis marker mRNA; format: in vivo, rat; conditions: for level of Collagen I mRNA in liver / level of alpha SMA mRNA in liver: compared to sham operated rats (p<0.05)
Procedure: A study of the effects of an FXR agonist (GW4064) on the livers of bile duct ligated (BDL) rats was carried out. This study was initially devised to examine the effects of FXR agonist on non-fibrotic liver damage due to cholestosis. The present researchers additionally went on to examine samples from these experiments for markers of liver fibrosis.
Male Sprague-Dawley rats (approximately 300 grams) were obtained from Charles River Laboratories Inc (Raleigh, N.C.) and were maintained on a 12 hour light/12 hour dark light cycle. Animals were anesthetized by the administration of 2-3% isoflurane. Laparotomy was performed under sterile technique and the liver and duodenum gently displaced to reveal the common bile duct. The bile duct was separated from the surrounding tissue and two ligatures of 4-0 Ethilon were placed around it. The bile duct was clamped between the two ligatures with an aneurysm clamp and the ligatures drawn tight. An additional ligature was placed proximal to the first (near the liver). The clamp was removed and the bile duct severed between the ligatures. The muscle wall was closed with 4-0 Vicryl and the skin closed with staples. Sham controls underwent laparotomy, but the bile ducts were not ligated or transected. Animals were allowed food and water ad libitum throughout the study period. Animals were anesthetized with 2-3% isoflurane and sacrificed by cardiac puncture.
Twenty-four hours after surgery, groups of rats (n=6-8) received intraperitoneal injections once daily for four days, of either (a) 5 ml/kg corn oil (vehicle); (b) 30 mg/kg GW4064 in corn oil; or (c) 15 mg/kg TUDCA in corn oil (taurine-conjugated ursodeoxycholic acid, used clinically to treat cholestosis). Sham operated animals received intraperitoneal injections of 5 ml/kg corn oil vehicle 24 hours after sham operation. Four hours after the last dose on day four, blood and livers were collected.
Serum activities of alanine aminotransferase (ALT), asparate aminotransferase (AST), sorbital dehydrogenase (SDH), y-glutamyl transferase (GGT), lactate dehydrogenase (LDH), alkaline phosphatase (ALP) and total bilirubin were determined. Serum bile acids (BILEA) were determined using a commercially available assay (Sigma Chemical Co., St Louis, Mo.).
In humans, liver fibrosis secondary to cholestatic disease is known to occur clinically. Experimentally, bile duct ligation in rats as a model of cholestosis is also known to cause liver fibrosis. In view of this, the present researchers additionally examined the BDL rat liver tissue for markers of liver fibrosis. Levels of Smooth Muscle Actin (SMA) mRNA, Collagen I mRNA, and TGFbeta1 mRNA were measured; results are graphed in FIG. 1a-1c where white bars=sham operated rats; black bars=vehicle treated BDL rats; striped bars=GW4064 treated BDL rats; and dotted bars=TUDCA treated BDL rats.

[2] = tested on: rats treated with carbon tetrachloride (CCl4); assay: Acute liver fibrosis in vivo model (single dose CCl4); design: species or system rat
Procedure: Male CRL:CD(SD)IGS® rats (Charles River Laboratories) weighing 250-280 g were randomized into three groups of 5-6 rats per group. On day 1, rats in Group 1 (Control) were given a single intraperitoneal (ip) injection of corn oil (5 ml/kg). Rats in Groups 2 and 3 were given a single ip injection of 30% carbon tetrachloride (CCl4) in corn oil (5 ml/kg). Beginning four hours after the initial ip injections and continuing for four days, rats in Group 1 (Control) and Group 2 (CCl4) were given vehicle (20% Encapsin; Cerestar Inc., IN) by oral gavage twice daily. Beginning four hours after the initial ip injections and continuing for four days, rats in Group 3 (CCl4+GW4064) were given 30 mg/kg GW4064 in vehicle by oral gavage, twice daily for four days.
Four hours after the final oral dose on day four, rats were sacrificed under deep anesthesia and blood and livers were collected. A portion of liver from each rat was fixed in 10% phosphate-buffered formalin (pH 7.4). The remaining livers were snap frozen in liquid nitrogen and stored at −80° C. prior to RNA extraction.
Histopathology: The tissues were processed by standard histological techniques. Liver sections were stained with hematoxylin and eosin (H&E) using standard protocols and examined by light microscopy for necrosis and other structural changes. Immunohistochemistry was used to visualize α-smooth muscle actin (DAKO Corporation, CA) according to the manufacturer's instructions. Sirius Red (Sigma, St Louis, Mo.) was used to visualize collagen according to the manufacturer's instructions.
Reverse Transcription Quantitative Polymerase Chain Reaction (RTQ-PCR). Total RNA was extracted from rat liver using TRIzol reagent (Invitrogen) according to the manufacturer's directions. The RNA was treated with DNase I (Ambion, Austin, Tex.) at 37° C. for 30 min, followed by inactivation at 75° C. for 5 min. RNA was then quantitated using the RiboGreen RNA quantitation kit (Molecular Probes, Eugene, Oreg.). RNA expression was measured by RTQ-PCR using an ABI PRISM 7700 or 7900 Sequence Detection System (PE Applied Biosystems, Foster City, Calif.).
(§1) Statistical Analysis: All data were analyzed by one-way analysis of variance (ANOVA) followed by Duncan's multiple range test. The 0.05 level of probability was used as the criteria of significance.

[3] = tested on: rat hepatic stellate cells; assay: In vitro stellate cell activation (RTQ-PCR of SMA, collagen, fibronectin mRNA); format: cell-based
Procedure: Rat hepatic stellate cells were isolated from male CRL:CD(SD)IGS® rats (Charles River Laboratories) as described previously. Cells were plated into six well plates at a density of 1×10^6 cells/well in DMEM-F12 media with 20% FCS. Twenty-four hours after plating, the media was replaced with media containing 0.1% DMSO (vehicle control) or 10 uM GW4064 with 0.1% DMSO. Following 2, 4, 6 or 8 days of treatment, total RNA was extracted from the cells using TRIzol reagent (Invitrogen) according to the manufacturer's directions. The RNA was treated with DNase I (Ambion, Austin, Tex.) at 37° C. for 30 min, followed by inactivation at 75° C. for 5 min. RNA was then quantitated using the RiboGreen RNA quantitation kit (Molecular Probes, Eugene, Oreg.). RNA expression was measured by RTQ-PCR using an ABI PRISM 7700 or 7900 Sequence Detection System (PE Applied Biosystems, Foster City, Calif.). For analysis, gene expression was normalized to 18S RNA. Follow-up studies were conducted using the same study design, except for a lower dose of GW4064 (3 uM). In the vehicle control group, SMA, collagen and fibronectin peaked at six days of culture; collagen and fibronectin expression began to decline following eight days in culture (FIGS. 4A-4C, white bars). […] (FIGS. 4a-4c, shaded bars; asterisk indicates p<0.05 compared to the vehicle treatment at the indicated timepoint).

human hepatocytes = conditions: compared to control cells; cited from earlier work
[4] = tested on: rats treated with carbon tetrachloride (CCl4); assay: Chronic liver fibrosis in vivo model (twice weekly CCl4 up to eight weeks); design: species or system rat
Procedure: Male CRL:CD(SD)IGS® rats (Charles River Laboratories) weighing 250-350 were randomized into 3 groups. All rats received twice weekly intraperitoneal (ip) injections of 20% carbon tetrachloride (CCl4) in corn oil (5 ml/kg) for the duration of the study. Two weeks after the initiation of the CCl4 injections, rats in Group 1 (CCL4+Vehicle) began receiving vehicle (6% Encapsin; Cerestar Inc., IN) twice daily, rats in Group 2 (CCL4+GW4064) began receiving 30 mg/kg GW4064 in vehicle twice daily, and rats in Group 3 (CCL4+Silymarin) began receiving silymarin in vehicle twice daily. (Silymarin reduces TGFb1 and collagen deposition in fibrotic rat liver (Jia et al., J Hepatol 2001 September; 35(3):392-8).
Multiple rats from each group were sacrificed after each of four, six and eight weeks on study. Rats were also sacrificed following the two weeks of CCL4 exposure, prior to initiation of drug treatment, as well as five untreated Naive rats. An additional five untreated Naïve rats were also sacrificed at the eight week timepoint. Plasma, serum, kidneys and livers were collected for analysis. Histopathological, mRNA and serum markers of liver damage and liver fibrosis were examined.
Histopathology: The tissues were processed by standard histological techniques. Liver sections were stained with hematoxylin and eosin (H&E) using standard protocols and examined by light microscopy for necrosis and other structural changes. Immunohistochemistry was used to visualize α-smooth muscle actin (Sigma, St Louis, Mo.) according to the manufacturer's instructions. Sirius Red (Sigma, St Louis, Mo.) was used to visualize collagen according to the manufacturer's instructions. Liver sections were stained with Masson's trichrome (Sigma, St Louis, Mo.) according to the manufacturer's instructions.
Reverse Transcription Quantitative Polymerase Chain Reaction (RTQ-PCR). Total RNA was extracted from sections of rat liver using TRIzol reagent (Invitrogen) according to the manufacturer's directions. The RNA was treated with DNase I (Ambion, Austin, Tex.) at 37° C. for 30 min, followed by inactivation at 75°C. for 5 min. RNA was then quantitated using the RiboGreen RNA quantitation kit (Molecular Probes, Eugene, Oreg.). RNA expression was measured by RTQ-PCR using an ABI PRISM 7700 or 7900 Sequence Detection System (PE Applied Biosystems, Foster City, Calif.).
Serum Analysis: Serum TIMP1 (R&D Systems, Minneapolis, Minn.) levels were measured according to the manufacturer's directions.
as §1

[5] = 30 mg/kg GW4064 or 15 mg/kg TUDCA ip once daily for four days, compared to vehicle-treated BDL rats
[6] = 30 mg/kg oral gavage twice daily for four days after single CCl4, compared to CCl4+V animals
[7] = 30 mg/kg oral twice daily four days, compared to control
[8] = 30 mg/kg oral twice daily four days, compared to group 2 (CCl4+vehicle), p<0.05
[9] = day four, compared to vehicle-treated BDL rats
[10] = ip once daily for four days, compared to vehicle treated BDL rats
[11] = 3 uM, eight days, compared to vehicle
[12] = 3 uM, six days, compared to vehicle
[13] = 10 uM, eighth day, compared to control group, normalized to 18S
[14] = 10 uM, six days, compared to vehicle control group
[15] = twice daily from week 2, compared to CCl4+Vehicle rats
[16] = twice daily from week 2, compared to CCl4+Vehicle rats, 8 week timepoint

## C[C@H](CCC(=O)NCCS(=O)(=O)O)[C@H]1CC[C@H]2[C@@H]3[C@@H](O)C[C@@H]4C[C@H](O)CC[C@]4(C)[C@H]3CC[C@]12C [TUDCA, taurine-conjugated ursodeoxycholic acid, reference compound]
[1]; [5]
  serum level of LDH: significant decrease
[1]; day four
  level of Collagen I mRNA in liver: significantly different
  level of alpha SMA mRNA in liver: significantly different
[1]; day four, compared to vehicle treated BDL rats
  liver sections, histology overall (necrosis, bile duct proliferation): did not appear to differ substantially from vehicle treated BDL rats

## CC(C)c1onc(-c2c(Cl)cccc2Cl)c1COc1ccc(/C=C/c2cccc(C(=O)O)c2)c(Cl)c1 [GW4064]
[2]; [6]
  liver SMA (immunohistochemistry): reduced SMA
  liver collagen deposition (Sirius Red): reduced collagen deposition
[2]; [7]
  liver Collagen I mRNA: not statistically different from control
  liver SMA mRNA: not statistically different from control
  liver TGFb1 mRNA: not statistically different from control
[2]; [8]
  liver Collagen I mRNA: significantly decreased
  liver SMA mRNA: significantly decreased
[1]; [5]
  serum level of ALT: reductions
  serum level of LDH: reductions
[1]; day four, compared to BDL rats receiving vehicle or TUDCA
  level of TGFb1 mRNA in liver: significantly reduced
[1]; day four
  level of Collagen I mRNA in liver: significantly different
  level of alpha SMA mRNA in liver: significantly different
[1]; day four, compared to vehicle treatment
  number of mitotic nuclei (liver histology): reduced
[1]; [9]
  bile duct proliferation (liver histology): reduced bile duct proliferation
  fatty cell degeneration (liver histology): decreased fatty cell degeneration
  liver necrotic lesions (histology): qualitatively fewer and smaller necrotic lesions
[1]; [10]
  serum bile acids: did not significantly reduce
  serum level of ALP: did not significantly reduce
  serum level of GGT: did not significantly reduce
  serum level of SDH: did not significantly reduce
  serum total bilirubin: did not significantly reduce
[1]; ip once daily for four days, compared to vehicle-treated BDL rats
  serum level of AST: reductions
[3]; [11]
  collagen mRNA: not significantly different from vehicle
  decrease of SMA mRNA: 40%
  fibronectin mRNA: not significantly different from vehicle
[3]; [12]
  decrease of SMA mRNA: 55%
  decrease of collagen mRNA: 31%
  decrease of fibronectin mRNA: 28%
[3]; [13]
  decrease of SMA mRNA: 84%
  decrease of collagen mRNA: 51%
  decrease of fibronectin mRNA: 79%
[3]; [14]
  SMA mRNA: decreased
  fibronectin mRNA: decreased
Human hepatocytes
  expression of Fibroblast Growth Factor 19 (FGF19): increased
[4]; twice daily from week 2 (GW4064 30 mg/kg), six and eight week timepoints, compared to CCl4+V animals
  liver collagen deposition (Sirius Red): reduced collagen deposition
[4]; [15]
  liver TGFb1 mRNA: unchanged
  reduction in liver SMA mRNA: not statistically significant
[4]; [16]
  liver Collagen I mRNA: significant reductions
  liver TIMP1 mRNA: significant reductions
[4]; twice daily from week 2, compared to CCl4+Vehicle treated rats at 8 weeks, p<0.05
  serum TIMP1: significant reductions
